HELM strings list units from the 5' end as sugar, base in round brackets, then linkage (d deoxyribose, r ribose, m 2'-O-methyl, p phosphodiester). Strings are as the collection lists them; they lack the last nucleoside at the 3' end of the tested compound. [moe] = 2'-O-(2-methoxyethyl) (MOE); [sp] = phosphorothioate linkage; [m5C] = 5-methylcytosine

The data set has as its target GFAP. Briefly: mouse, dose not given. Particulars: ASO.
For “RNA1{[moe]([m5C])[sp].[moe]([m5C])p.[moe](A)p.[moe](G)p.[moe](T)[sp].d(G)[sp].d([m5C])[sp].d([m5C])[sp].d([m5C])[sp].d(T)[sp].d(T)[sp].d([m5C])[sp].d([m5C])[sp].d([m5C])[sp].d(A)[sp].[moe]([m5C])p.[moe](G)p.[moe](A)[sp].[moe](G)}$$$$ (last 3' nucleoside missing)”, the 3 h FOB score is 2 score 0-7.

In turn, “RNA1{[moe](T)[sp].[moe](T)p.[moe](T)p.[moe](G)p.[moe](T)[sp].d([m5C])[sp].d(T)[sp].d(T)[sp].d(T)[sp].d(A)[sp].d(T)[sp].d(T)[sp].d(T)[sp].[moe](T)p.[moe](T)p.[moe]([m5C])[sp].[moe]([m5C])}$$$$ (last 3' nucleoside missing)” gave a 3 h FOB score of 0 score 0-7.

As to “RNA1{[moe](T)[sp].[moe](T)p.[moe](G)p.[moe](G)p.[moe]([m5C])p.[moe](A)p.d(G)[sp].d(T)[sp].d(A)[sp].d(T)[sp].d(T)[sp].d(A)[sp].d([m5C])[sp].d([m5C])[sp].d(T)[sp].d([m5C])[sp].[moe](T)p.[moe](A)[sp].[moe]([m5C])}$$$$ (last 3' nucleoside missing)”, the 3 h FOB score is 0 score 0-7.

Take “RNA1{[moe](G)[sp].[moe](T)p.[moe](A)p.[moe]([m5C])p.[moe]([m5C])[sp].d([m5C])[sp].d(T)[sp].d(G)[sp].d(G)[sp].d(T)[sp].d(A)[sp].d(T)[sp].d(G)[sp].d(A)[sp].d(T)[sp].[moe](A)p.[moe](G)p.[moe](G)[sp].[moe]([m5C])}$$$$ (last 3' nucleoside missing)”: the 3 h FOB score was found to be 6 score 0-7.

With “RNA1{[moe](G)[sp].[moe](T)p.[moe](T)p.[moe](T)p.[moe]([m5C])[sp].d(T)[sp].d(T)[sp].d(G)[sp].d(T)[sp].d(T)[sp].d(A)[sp].d(G)[sp].d(T)[sp].d(T)[sp].d(G)[sp].[moe](G)p.[moe](A)p.[moe](G)[sp].[moe](T)}$$$$ (last 3' nucleoside missing)”, the 3 h FOB score came out at 7 score 0-7.

The substance “RNA1{[moe]([m5C])[sp].[moe]([m5C])p.[moe](T)p.[moe](G)p.[moe](T)p.d(G)[sp].d(A)[sp].d([m5C])[sp].d(T)[sp].d(A)[sp].d(T)[sp].d([m5C])[sp].d(T)[sp].d(A)[sp].d(G)[sp].[moe](G)p.[moe](A)p.[moe](T)[sp].[moe](T)}$$$$ (last 3' nucleoside missing)” returned a 3 h FOB score of 2 score 0-7.

For the substance “RNA1{[moe]([m5C])[sp].[moe](A)p.[moe](G)p.[moe]([m5C])p.[moe](A)[sp].d(T)[sp].d(T)[sp].d(T)[sp].d(G)[sp].d(T)[sp].d([m5C])[sp].d(T)[sp].d(T)[sp].[moe](T)p.[moe](A)p.[moe](T)[sp].[moe](T)}$$$$ (last 3' nucleoside missing)”, the 3 h FOB score stood at 3 score 0-7.

As for “RNA1{[moe](G)[sp].[moe](G)p.[moe]([m5C])p.[moe](A)p.[moe](G)p.[moe](T)p.d(A)[sp].d(T)[sp].d(T)[sp].d(A)[sp].d([m5C])[sp].d([m5C])[sp].d(T)[sp].d([m5C])[sp].d(T)[sp].d(A)[sp].[moe]([m5C])p.[moe](T)[sp].[moe](A)}$$$$ (last 3' nucleoside missing)”, the 3 h FOB score was found to be 3 score 0-7.

“RNA1{[moe](G)[sp].[moe](G)p.[moe]([m5C])p.[moe](A)p.[moe](A)[sp].d([m5C])[sp].d(A)[sp].d(G)[sp].d(T)[sp].d(T)[sp].d(T)[sp].d([m5C])[sp].d([m5C])[sp].d(A)[sp].d(T)[sp].[moe](A)p.[moe](A)p.[moe]([m5C])[sp].[moe](A)}$$$$ (last 3' nucleoside missing)” displayed a 3 h FOB score of 0 score 0-7.

Consider “RNA1{[moe](G)[sp].[moe](T)p.[moe]([m5C])p.[moe](A)p.[moe](G)[sp].d([m5C])[sp].d([m5C])[sp].d(T)[sp].d(G)[sp].d(G)[sp].d(T)[sp].d(T)[sp].d(A)[sp].d(G)[sp].d([m5C])[sp].[moe]([m5C])p.[moe](T)p.[moe](T)[sp].[moe](T)}$$$$ (last 3' nucleoside missing)”, for which the 3 h FOB score came to 6 score 0-7.

(Values after the OligoGym collection.)
